Patent US20040106682A1, “Novel benzylideneamino guanidines and their uses as ligands to the melnocortin receptors” (priority 2001, published 2004)
Counter-ions that a name gives are not always drawn. Blank lines part the entries; values can stand above or below the compound they belong to.

Experiments:
[1] = target: T1, recombinant human MC3 receptor (Homo sapiens, UniProt P41968); assay: Affinity for the MC3-receptors, 125I-NDP-αMSH binding assay; conditions: Sf9 or COS cells transfected with recombinant human MC3, displacement of 125I-NDP-MSH, nb = non-binding, i.e. no affinity; for Ki: read-out: Affinity for MC-receptors, Ki, MC3
T1 construct: expressed in transfected cells; host or cells: Sf9 insect cells or COS cells
T1 sequence (P41968 whole entry): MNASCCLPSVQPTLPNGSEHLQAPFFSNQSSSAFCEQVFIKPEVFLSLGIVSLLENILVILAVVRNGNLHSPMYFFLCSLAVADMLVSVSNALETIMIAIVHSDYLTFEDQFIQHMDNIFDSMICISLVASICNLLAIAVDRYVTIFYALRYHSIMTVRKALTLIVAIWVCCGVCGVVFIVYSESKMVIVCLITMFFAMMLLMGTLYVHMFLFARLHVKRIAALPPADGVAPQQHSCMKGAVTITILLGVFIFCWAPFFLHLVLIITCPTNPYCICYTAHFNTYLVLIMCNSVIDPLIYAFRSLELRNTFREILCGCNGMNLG
Description: (§1) Test 2. Affinity for the MC3-receptors, the MC4receptors and the MC5-receptors
(§2) The binding assays were carried out essentially as described by Szardenings et al., J. Biol. Chem. 1997; 272; 27943-27948 and Schiöth et al., FEBS Lett. 1997; 410; 223-228 using I^125-NDP-αMSH as ligand.
(§3) Essentially, the affinity of the compounds for the different melanocortin receptors were determined by using either insect cells (Sf9) or COS cells, which were transfected with recombinant human MC3, MC4 or MC5 receptors. For the determination of the affinity for the MC1 receptor, B16 mouse melanoma cells were used, which endogenously express the (mouse) MC1 receptor.
(§4) The compounds were tested at different concentrations for their ability to displace a ^125I-labelled NDP-MSH from the respective receptor. Incubation was performed in 96-well plates, using 50,000 cells/well (Sf9 or COS cells) up to 200,000 cells/well (mouse melanoma cells).
(§5) The test compound or standard (NDP-MSH) was added in an appropriate concentration (generally between 10^−4 M and 10^−12 M) together with labelled tracer (approx. 50,000 cpm/well) and incubated for 2 hours (at room temperature for Sf9 cells and at +37° C. for COS cells and mouse melanoma cells).
(§6) After the incubation, the cells were washed twice to get rid of the excess tracer and compound, and the cells were lysed with 0.1 M NaOH. The lysate was counted in a gamma-counter, binding was calculated and the affinity determined.

[2] = target: T2, recombinant human MC4 receptor (Homo sapiens, UniProt P32245); assay: Affinity for the MC4-receptors, 125I-NDP-αMSH binding assay; conditions: Sf9 or COS cells transfected with recombinant human MC4, displacement of 125I-NDP-MSH, nb = non-binding, i.e. no affinity; for Ki: read-out: Affinity for MC-receptors, Ki, MC4
T2 construct: expressed in transfected cells; host or cells: Sf9 insect cells or COS cells
T2 sequence (P32245 whole entry): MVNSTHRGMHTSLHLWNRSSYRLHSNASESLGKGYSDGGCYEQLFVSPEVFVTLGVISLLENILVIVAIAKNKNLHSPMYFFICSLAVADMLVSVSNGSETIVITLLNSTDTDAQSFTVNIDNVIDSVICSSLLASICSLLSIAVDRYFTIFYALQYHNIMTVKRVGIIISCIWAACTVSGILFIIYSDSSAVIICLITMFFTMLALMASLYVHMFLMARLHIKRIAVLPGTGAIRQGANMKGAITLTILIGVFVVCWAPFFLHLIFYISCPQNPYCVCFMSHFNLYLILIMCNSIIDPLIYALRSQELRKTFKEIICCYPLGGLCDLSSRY
Description: as §1, §2, §3, §4, §5, §6

MC1 receptor = target: T3, MC1 receptor (Mus musculus, UniProt Q01727); assay: Affinity for the MC1-receptor, 125I-NDP-αMSH binding assay; conditions: B16 mouse melanoma cells endogenously expressing mouse MC1, displacement of 125I-NDP-MSH, nb = non-binding, i.e. no affinity; for Ki: read-out: Affinity for MC-receptors, Ki, MC1
T3 construct: B16 mouse melanoma cells were used, which endogenously express the (mouse) MC1 receptor; endogenous in cells; host or cells: B16 mouse melanoma cells
T3 sequence (Q01727 whole entry): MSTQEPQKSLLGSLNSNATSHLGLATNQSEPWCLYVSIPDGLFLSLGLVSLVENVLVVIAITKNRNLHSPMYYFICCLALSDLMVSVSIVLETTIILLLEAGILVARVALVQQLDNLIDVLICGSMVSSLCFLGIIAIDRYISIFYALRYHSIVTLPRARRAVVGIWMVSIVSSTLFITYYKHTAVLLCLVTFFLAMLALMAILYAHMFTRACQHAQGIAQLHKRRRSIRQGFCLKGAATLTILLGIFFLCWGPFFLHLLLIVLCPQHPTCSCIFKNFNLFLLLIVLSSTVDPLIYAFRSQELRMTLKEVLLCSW
Description: Test 1. Affinity for the MC1-receptor
The binding assay was carried out essentially as described by Lunec et al., Melanoma Res. 1992; 2; 5-12 using I^125-NDP-αMSH as ligand.
as §3, §4, §5, §6

[3] = target: T4, recombinant human MC5 receptor (Homo sapiens, UniProt P33032); assay: Affinity for the MC5-receptors, 125I-NDP-αMSH binding assay; conditions: Sf9 or COS cells transfected with recombinant human MC5, displacement of 125I-NDP-MSH, nb = non-binding, i.e. no affinity; for Ki: read-out: Affinity for MC-receptors, Ki, MC5
T4 construct: expressed in transfected cells; host or cells: Sf9 insect cells or COS cells
T4 sequence (P33032 whole entry): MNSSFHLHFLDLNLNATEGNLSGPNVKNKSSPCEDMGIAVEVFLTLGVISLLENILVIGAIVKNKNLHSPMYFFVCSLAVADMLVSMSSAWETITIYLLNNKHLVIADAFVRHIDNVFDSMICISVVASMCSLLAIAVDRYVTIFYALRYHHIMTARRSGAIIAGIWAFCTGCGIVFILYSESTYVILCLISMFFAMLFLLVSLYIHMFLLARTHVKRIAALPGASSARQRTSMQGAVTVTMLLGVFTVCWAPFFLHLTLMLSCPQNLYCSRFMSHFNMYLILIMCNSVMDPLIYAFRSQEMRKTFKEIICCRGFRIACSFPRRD
Description: as §1, §2, §3, §4, §5, §6

melanocortin receptors = assay: Affinity/activity on melanocortin receptors (general statements); type: binding; conditions: statement in words, receptor subtype not specified

Compound: N=C(N)NN=Cc1ccc([N+](=O)[O-])c(Cl)c1Cl (as salt: HCl) [1:4, N-(2,3-Dichloro-4-Nitrobenzylideneamino)guanidine]
- melting point: 258 to 262 °C

Compound: N=C(N)NN=Cc1cc(F)ccc1F (as salt: salt) [1:10, N-(2,5-Difluorobenzylideneamino)guanidine]
- melting point: 211 to 212 °C

Compound: N=C(N)NN=Cc1cccc(Cl)c1I [1:1, N-(3-Chloro-2-Iodobenzylideneamino)guanidine]
- Ki [1]: 5.8 µM
- Ki [2]: 0.01 µM
- Ki (MC1 receptor): 0.5 µM
- Ki [3]: 4.9 µM

Compound: CCOc1cc(C=NNC(=N)N)c([N+](=O)[O-])c(C(F)(F)F)c1 (as salt: HCl) [1:5, N-(5-Ethoxy-2-Nitro-3-Trifluoromethylbenzylideneamino)guanidine]
- melting point: 92 to 98 °C

Compound: N=C(N)NN=Cc1ccc([N+](=O)[O-])c(Cl)c1Cl [1:4, N-(2,3-Dichloro-4-Nitrobenzylideneamino)guanidine]
- Ki [1]: 10.1 µM
- Ki [2]: 12.2 µM
- Ki (MC1 receptor): 3.6 µM
- Ki [3]: 10.7 µM

Compound: N=C(N)NN=Cc1cccc(Cl)c1I (as salt: salt) [1:1, N-(3-Chloro-2-Iodobenzylideneamino)guanidine]
- melting point: 231 to 232.5 °C

Compound: N=C(N)NN=Cc1ccc(Br)cc1I (as salt: salt) [1:13, N-(4-Bromo-2-iodobenzylideneamino)guanidine]
- melting point: 202 to 207 °C

Compound: N=C(N)NN=Cc1cccc(O)c1O (as salt: salt) [1:12, N-(2,3-Dihydroxybenzylideneamino)guanidine]
- melting point: 223 to 224.5 °C

Continued, values first:

- melting point: 158 to 160 °C
Compound: COc1cccc(OC)c1C=NNC(=N)N (as salt: salt) [1:11, N-(2,6-Dimethoxybenzylideneamino)guanidine]

- Ki [1]: 22.7 µM
- Ki [2]: 0.1 µM
- Ki (MC1 receptor): 0.8 µM
- Ki [3]: 29.6 µM
Compound: N=C(N)NN=Cc1c(Br)cccc1Br [1:6, N-(2,6-Dibromobenzylideneamino)guanidine]

- melting point: 236 to 239 °C
Compound: N=C(N)NN=Cc1ccc(I)cc1Br (as salt: HCl) [1:9, N-(2-Bromo-4-Iodobenzylideneamino)guanidine]

- melting point: 178 to 183 °C
Compound: N=C(N)NN=Cc1c(Br)cccc1Br (as salt: HCl) [1:6, N-(2,6-Dibromobenzylideneamino)guanidine]

- affinity to the melanocortin receptors (melanocortin receptors): no affinity
- Affinity for MC-receptors, Ki, MC3 [1]: nb
- Affinity for MC-receptors, Ki, MC4 [2]: nb
- Affinity for MC-receptors, Ki, MC1 (MC1 receptor): nb
- Affinity for MC-receptors, Ki, MC5 [3]: nb
Compound: N=C(N)N/N=C/c1c(Cl)cccc1Cl [Guanobenz, Guanabenz, reference compound]
